# Assay results reported in US10813941B2, “Methods and compounds for treating malaria” (THE GEORGE WASHINGTON UNIVERSITY, A CONGRESSIONALLY …, priority 2016, dated 2020).
# Like-named read-outs stand apart in the source and are kept apart here.
# What was measured:
# P. berghei ANKA = assay: Mouse model of malaria, P. berghei asexual blood stages (luciferase); assay type: in vivo, Swiss Webster mice
# Description: In vivo testing of RCB-185 against intraerythrocytic P. berghei parasites was performed by the Anti-Infectives Screening Core at NYU School of Medicine. Briefly, groups of 5-7 female Swiss Webster mice weighing 25-30 g were infected via intraperitoneal injection with 10^3 transgenic P. berghei ANKA that express a fusion GFP (mutant 3) and firefly luciferase (LucIAV) fusion under the control of the constitutive eeflaα promoter that is stably integrated into the 230p locus (PbGFP-Luccon). Two days post-infection, mice were treated by intraperitoneal injection with 50 mg/kg of the test compound RCB-185 or 20 mg/kg chloroquine or 2% methyl cellulose, 0.5% tween-80 as positive and vehicle controls, respectively. Treatment continued once a day for 5 days. At 7 days post-infection, mice were administered 2.5% isofluorane via a nose cone, and once anesthesized, were injected i.p. with 150 mg/kg of D-Luciferin Potassium-salt (Goldbio) dissolved in PBS. Mice were imaged 5-10 min after injection of luciferin with an IVIS 100 (Xenogen, Alameda, Calif.) and data acquisition and analysis were performed with Livinglmage (Xenogen) to quantify the level of infection. To test for significance between vehicle- and RCB-185-treated mice, a t-test was used (VassarStats).
# P. falciparum 3D7 = assay: P. falciparum growth inhibition assay (PicoGreen, 72 h), strain 3D7; assay type: cell-based, Plasmodium falciparum
# Text: (§1) P. falciparum strains were obtained through the MR4 as part of the BEI Resources Repository, NIAID NIH (www.mr4.org): Plasmodium falciparum 3D7 (wild-type, WT), Plasmodium falciparum K1 (MRA-159; chloroquine and sulfadoxine-pyrimethamine resistant) deposited by D E Kyle, and Plasmodium falciparum IPC 5202 Battambang Cambodia 2011 (MRA-1240; chloroquine and artemisinin resistant) deposited by Didier Menard at the Institut Pasteur du Cambodge. The P. falciparum mutant containing increased levels of MEP pathway metabolites had1 (MRA-1257), and its compliment had1+PfHad1-GFP (MRA-1258), were generated in strain 3D7 as reported (BEI Resources; Guggisburg 2014). Parasites were cultured in a 2% suspension of human erythrocytes and RPMI 1640 (Sigma) medium supplemented with 27 mM sodium bicarbonate, 11 mM glucose, 5 mM HEPES, 1 mM sodium pyruvate, 0.37 mM hypoxanthine, 0.01 mM thymidine, 10 μg/ml gentamicin, and 0.5% albumax (Gibco) at 37° C., 5% O2/5% CO2/90% N2 atmosphere as previously described (Zhang 2011).
# (§2) Asynchronous P. falciparum cultures were diluted to 1% parasitemia and were treated with FR900098 analogs at concentrations ranging from 0.25 ng/ml-100 μg/ml. Growth inhibition assays were performed in opaque 96-well plates at 100 μl culture volume. After 3 days, parasite growth was quantified by measuring DNA content using PicoGreen (Life Technologies), as described. Fluorescence was measured on a FLUOstar Omega microplate reader (BMG Labtech) at 485 nm excitation and 528 nm emission. Half maximal inhibitory concentration (IC50) values were calculated by nonlinear regression analysis using GraphPad Prism software. For isopentenyl pyrophosphate (IPP) (Echelon) rescue experiments, 250 μM IPP was added to the appropriate wells for the duration of the experiment.
# P. falciparum D6 = assay: P. falciparum growth inhibition assay, strain D6; assay type: cell-based, Plasmodium falciparum; settings: P. falciparum D6 (mefloquine resistant), 72 h
# Description: as §2
# [1] = system: MEP pathway in P. falciparum strain 3D7; assay: MEP pathway metabolite levels by LC-MS/MS; assay type: cell-based, Plasmodium falciparum; settings: for reduction in MEcPP levels: 10 h
# Description: P. falciparum strain 3D7 was cultured at 37° C. in 30 ml volumes in 100 mm tissue culture dishes (Techno Plastic Products) at 4% hematocrit until >8% parasitemia. […] Cultures were then lysed with 5% saponin, the parasite pellets washed with 1× phosphate-buffered saline (PBS), and the pellets stored at −80° C. Samples were extracted via addition of 600 μl of ice-cold extraction solvent [chloroform, methanol, and acetonitrile (2:1:1, v/v/v)] and two liquid nitrogen-cooled 3.2 mm stainless steel beads, followed by homogenization in the Tissue-Lyser II instrument (Qiagen, Valencia, Calif.) at 20 Hz for 5 min in a cold sample rack. Ice-cold water (600 μl) was added, and samples were homogenized for an additional 5 min at 20 Hz. After centrifugation (14,000 rcf at 4° C. for 5 min), the polar upper phase was aspirated and lyophilized. Dried samples were dissolved in 100 μl water and analyzed by LC-MS/MS.
# The 4000QTRAP LC-MS/MS system (AB Sciex) was used in multiple-reaction monitoring (MRM) mode using negative ionization. The detailed instrument configuration and compound-dependent parameters for isoprenoid precursors were as previously described (Zhang 2011). LC separation prior to MRM detection was achieved by ion pair reverse-phase chromatography as described previously, with 10 mM tributylammonium acetate (pH 5.1-5.5) used as the ion pair reagent and the following modifications: (1) RP-hydro 100 mm×2.0 mm, 2.5 μm high performance liquid chromatography column (Phenomenex), (2) flow rate of 0.14 ml/min, (3) solvent A of 10 mM tributylammonium acetate in 5% methanol, (4) binary LC gradient (20% solvent B (100% methanol) from 0 to 2.5 min, 30% B for 12.5 min, 80% B for 5 min, and column equilibration at for 5 min), and (5) autosampler injection volume of 20 μl. For DOXP and MEcPP metabolites, one-way ANOVA was used to test for significance (VassarStats). A t-test was used to test for significance between UNT and 1× RCB-185 CDP-ME levels (VassarStats).
# [2] = system: P. falciparum strain NF54 gametocytes; assay: Gametocyte assay (flow cytometry); assay type: cell-based, Plasmodium falciparum; settings: 72 h, 5 μM to 0.001 μM
# Description: The next day, the parasites were resuspended at 10% gametocytemia, and 2% hematocrit.
# A 96-well plate was prepared with 2× concentration of RCB-185 ranging 10 μM to 0.002 μM in complete RPMI with 1% DMSO as well as a positive control, 65 nM epoxomicin, and a negative control, 1% DMSO. Percoll purified NF54 strain P. falciparum gametocytes were added to individual wells at 2% hematocrit and 10% parasitemia in a 1:1 dilution, resulting in a final 1% hematocrit and a two-fold dilution of RCB-185 for a final concentration range of 5 μM to 0.001 μM and a final 0.5% DMSO, 32.5 nM epoxomicin. The plate was gassed with 90% N2, 5% O2, 5% CO2 and incubated at 37° C. with compound for 72 h. Following incubation, cells were analyzed using flow cytomtetry as described below.
# Cells were incubated at a final 0.1% hematocrit in 50 nM DiIC(1)5 with buffer containing 1.67 mg/ml glucose, 8 mg/mL NaCl, 8 mM Tris-Cl (pH 7.4) and incubated at 37° C. for 20-30 minutes prior to analysis on BD Accuri C6 flow cytometer. Uninfected RBCs and unstained P. falciparum infected RBCs were incubated with MitoProbe DiIC1(5) as controls to determine the threshold for MitoProbe DiIC1(5) (640 nm laser excitation and FL4 emission filter [675/25 nm]) positive, single, and intact cell populations. One-way ANOVA was used to test for significance between the three treatment groups (VassarStats).
# P. falciparum K1 = assay: P. falciparum growth inhibition assay, strain K1; assay type: cell-based, Plasmodium falciparum; settings: P. falciparum K1 (chloroquine and sulfadoxine-pyrimethamine resistant), 72 h
# Text: as §1, with “Parasites were cultured in a 2% suspension of human erythrocytes and RPMI 1640 (Sigma) medium supplemented with 27 mM sodium bicarbonate, 11 mM glucose, 5 mM HEPES, 1 mM sodium pyruvate, 0.37 mM hypoxanthine, 0.01 mM thymidine, 10 μg/ml gentamicin, and 0.5% albumax (Gibco) at 37° C., 5% O2/5% CO2/90% N2 atmosphere as previously described (Zhang 2011).” left out
# as §2, with “Growth inhibition assays were performed in opaque 96-well plates at 100 μl culture volume.” left out, “For isopentenyl pyrophosphate (IPP) (Echelon) rescue experiments, 250 μM IPP was added to the appropriate wells for the duration of the experiment.” left out
# [3] = system: P. falciparum had1 (PfHad1 loss-of-function strain); assay: microbe, parasite or virus in culture; assay type: cell-based, Plasmodium falciparum
# Text: as §1, §2
# P. falciparum strain 3D7 = assay: IPP rescue of growth inhibition; assay type: cell-based, Plasmodium falciparum; settings: 250 μM IPP; RCB-185 1.2 nM-590.5 nM
# Description: as §2
# [4] = system: P. falciparum had1+HAD1-GFP; assay: P. falciparum growth inhibition assay, complemented strain had1+HAD1-GFP; assay type: cell-based, Plasmodium falciparum; settings: had1 mutant supplied with WT copy of had1, FIG. 3 panel B
# Text: as §1, with “Parasites were cultured in a 2% suspension of human erythrocytes and RPMI 1640 (Sigma) medium supplemented with 27 mM sodium bicarbonate, 11 mM glucose, 5 mM HEPES, 1 mM sodium pyruvate, 0.37 mM hypoxanthine, 0.01 mM thymidine, 10 μg/ml gentamicin, and 0.5% albumax (Gibco) at 37° C., 5% O2/5% CO2/90% N2 atmosphere as previously described (Zhang 2011).” left out
# as §2, with “Growth inhibition assays were performed in opaque 96-well plates at 100 μl culture volume.” left out, “For isopentenyl pyrophosphate (IPP) (Echelon) rescue experiments, 250 μM IPP was added to the appropriate wells for the duration of the experiment.” left out
# P. falciparum Battambang = assay: P. falciparum growth inhibition assay, strain Battambang; assay type: cell-based, Plasmodium falciparum; settings: P. falciparum Battambang (chloroquine and artemisinin resistant), 72 h
# Text: as §1, with “Parasites were cultured in a 2% suspension of human erythrocytes and RPMI 1640 (Sigma) medium supplemented with 27 mM sodium bicarbonate, 11 mM glucose, 5 mM HEPES, 1 mM sodium pyruvate, 0.37 mM hypoxanthine, 0.01 mM thymidine, 10 μg/ml gentamicin, and 0.5% albumax (Gibco) at 37° C., 5% O2/5% CO2/90% N2 atmosphere as previously described (Zhang 2011).” left out
# as §2, with “Growth inhibition assays were performed in opaque 96-well plates at 100 μl culture volume.” left out, “For isopentenyl pyrophosphate (IPP) (Echelon) rescue experiments, 250 μM IPP was added to the appropriate wells for the duration of the experiment.” left out
# P. falciparum 7G8 = assay: P. falciparum growth inhibition assay, strain 7G8; assay type: cell-based, Plasmodium falciparum; settings: P. falciparum 7G8 (quinine, chloroquine, and pyrimethamine resistant), 72 h
# Description: as §2
# P. falciparum D10 = assay: P. falciparum growth inhibition assay, strain D10; assay type: cell-based, Plasmodium falciparum; settings: P. falciparum D10 (mefloquine resistant), 72 h
# Description: as §2
# [5] = mouse, oral administration; cited from earlier work
# [6] = cited from earlier work
# [7] = rat, oral administration; cited from earlier work
# P. falciparum = settings: cited from earlier work
# [8] = Plasmodium falciparum, P. falciparum 3D7 (pan-sensitive, lab adapted), asynchronous, 72 h, mean±SEM
smiles,measurement,setting,value
"CCN(CC)CCCC(C)Nc1ccnc2cc(Cl)ccc12 (stereo not shown) [chloroquine, reference compound]",luciferase signal (parasite burden),"P. berghei ANKA; 20 mg/kg i.p. once a day, 7 days post-infection",below the limit of detection
"C[C@@H]1CC[C@H]2[C@@H](C)C(=O)O[C@@H]3O[C@@]4(C)CC[C@@H]1[C@]32OO4 [artemisinin, reference compound]",IC50,P. falciparum 3D7; [8],10.4 ± 1.6 nM
CC(=O)N(O)C/C=C/P(=O)(OCOC(=O)C(C)(C)C)OCOC(=O)C(C)(C)C [RCB-185],IC50,P. falciparum D6,37.6 ± 10 nM
same,reduction in MEcPP levels,[1]; 1× the IC50 value of 18.3 nM,3.0 fold
same,reduction in MEcPP levels,[1]; 7.5× the IC50 value of 18.3 nM,5.7 fold
same,DOXP levels versus untreated,"[1]; 10 h treatment, 1× or 7.5× IC50",no significant difference
same,CDP-ME levels,"[1]; 10 h treatment, limit of detection 1.25 ng/mL",below the limits of detection
same,MEP levels,"[1]; 10 h treatment, limit of detection 12.5 ng/ml",below the limits of detection
same,killing of gametocytes,[2],failure of RCB-185 to kill gametocytes
same,IC50,P. falciparum K1,31.9 ± 1 nM
same,"fold more resistant, had1 versus WT parasites",[3]; had1 IC50 versus WT IC50,3.8 fold
same,IC50,"[3]; had1 mutant (FSM-resistant), FIG. 3, mean±SEM, read-out: IC50",76.5 ± 18.5 nM
same,adverse effects in mice,P. berghei ANKA; 50 mg/kg i.p. once a day,no adverse effects were observed
same,drop in parasite load compared to vehicle,"P. berghei ANKA; 50 mg/kg i.p. once a day, luciferase signal 7 days post-infection",> 3 log
same,rescue of growth by IPP,P. falciparum strain 3D7,supports growth of P. falciparum treated with RCB-185 at all concentrations tested
same,IC50,[4],26 ± 6.4 nM
same,IC50,P. falciparum Battambang,21.1 ± 1.8 nM
same,fold lower IC50 than FSM,"P. falciparum 3D7; 3D7, RCB-185 versus FSM",50 fold
same,IC50,"P. falciparum 3D7; P. falciparum 3D7 (pan-sensitive, lab adapted), asynchronous, 72 h, mean±SEM",18.3 ± 1.9 nM
same,IC50,"P. falciparum 3D7; parent strain 3D7 (WT) in had1 comparison, FIG. 3, mean±SEM",19.9 ± 4.2 nM
same,IC50,P. falciparum 7G8,46.7 ± 10.9 nM
same,IC50,P. falciparum D10,42.5 ± 11.5 nM
"O=CN(O)CCCP(=O)(O)O [FSM, fosmidomycin, reference compound]",LD50,[5],"> 11,000 mg/kg"
same,IC50,P. falciparum D6; Plasmodium falciparum,1340 ± 247 nM
same,serum half-life,[6]; in vivo,1.87 h
same,bioavailability,[6]; oral dosing,20-40%
same,LD50,[7],"> 11,000 mg/kg"
same,tolerability in human patients,"P. falciparum; human, in vivo",well-tolerated
same,parasite clearance,P. falciparum; mean±standard deviation,44 ± 18 h
same,IC50,P. falciparum K1; Plasmodium falciparum,837 ± 141 nM
same,IC50,[3]; Plasmodium falciparum,5350 ± 831 nM
same,rescue of growth by IPP,P. falciparum strain 3D7,rescues
same,IC50,P. falciparum Battambang; Plasmodium falciparum,863 ± 248 nM
same,IC50,P. falciparum 3D7; [8],1020 ± 77.8 nM
same,IC50,"P. falciparum 3D7; Plasmodium falciparum, parent strain 3D7 (WT) in had1 comparison, FIG. 3, mean±SEM",1160 ± 158 nM
same,IC50,P. falciparum 7G8; Plasmodium falciparum,1240 ± 189 nM
same,IC50,P. falciparum D10; Plasmodium falciparum,2180 ± 353 nM
